# Measured values as given in ChEMBL document CHEMBL4513161, “CO-ADD screening of MMV (CH) - Pandemic Response Box” (2021).
# Structures can show the parent of a compound that is named as a salt.
# Columns and labels:
# Candida albicans = assay: microbe, parasite or virus in culture; details: ATCC 90028, ASSAY_TEST Inhibition of Fungal Growth, detection method Absorption (OD530), plate type 384well, NBS, CORNING #3640
# Description: Antifungal activity against Candida albicans ATCC 90028 (CO-ADD:FG_001); MIC in YNB media using NBS plates, by OD630
# Klebsiella pneumoniae = assay: microbe, parasite or virus in culture; details: ATCC 700603, 18 h, ASSAY_TEST Inhibition of Bacterial Growth, detection method Absorption (OD600), MEDIA CAMHB, plate type 384well, NBS, CORNING #3640
# Description: Antibacterial activity against Klebsiella pneumoniae MDR ATCC 70063 (CO-ADD:GN_003); MIC in CAMBH media using NBS plates, by OD(600)
# HEK293 = assay: cells; assay type: functional, Homo sapiens, ATCC CRL1573; details: Homo sapiens, ATCC CRL1573, HEK293; ASSAY_TEST Inhibition of Cell Viability; detection method Resazurin; Fluorescence (ex560/em590); MEDIA DMEM with 10% FBS; plate type 384well; TC; CORNING #3712; time 18 hr; read-out: CC50
# Staphylococcus aureus = assay: microbe, parasite or virus in culture; details: ATCC 43300, 18 h, ASSAY_TEST Inhibition of Bacterial Growth, detection method Absorption (OD600), MEDIA CAMHB, plate type 384well, NBS, CORNING #3640
# Description: Antibacterial activity against Staphylococcus aureus MRSA ATCC 43300 (CO-ADD:GP_020); MIC in CAMBH media, using NBS plates, by OD(600)
# Pseudomonas aeruginosa [1] = assay: microbe, parasite or virus in culture; details: ATCC 27853, 18 h, ASSAY_TEST Inhibition of Bacterial Growth, detection method Absorption (OD600), MEDIA CAMHB, plate type 384well, NBS, CORNING #3640
# Description: Antibacterial activity against Pseudomonas aeruginosa ATCC 27853 (CO-ADD:GN_042); MIC in CAMBH media using NBS plates, by OD(600)
# Pseudomonas aeruginosa [2] = assay: Antibacterial activity against Pseudomonas aeruginosa PAO397 [PAO1 d(mexAB-oprM) d(mexCD-oprJ) d(mexEF-oprN) d(mexJKL) d(mexXY) d(opmH)] (CO-ADD:GN_211); MIC in CAMBH media using NBS plates, by OD(600); assay type: functional; details: ASSAY_TEST Inhibition of Bacterial Growth, detection method Absorption (OD600), MEDIA CAMHB, plate type 384well, CORNING #3640, time 18 hr
# Escherichia coli = assay: microbe, parasite or virus in culture; details: ATCC 25922, 18 h, ASSAY_TEST Inhibition of Bacterial Growth, detection method Absorption (OD600), MEDIA CAMHB, plate type 384well, NBS, CORNING #3640
# Description: Antibacterial activity against Escherichia coli ATCC 25922 (CO-ADD:GN_001); MIC in CAMBH media using NBS plates, by OD(600)
# Acinetobacter baumannii = assay: microbe, parasite or virus in culture; details: ATCC 19606, 18 h, ASSAY_TEST Inhibition of Bacterial Growth, detection method Absorption (OD600), MEDIA CAMHB, plate type 384well, NBS, CORNING #3640
# Description: Antibacterial activity against Acinetobacter baumannii ATCC 19606 (CO-ADD:GN_034); MIC in CAMBH media using NBS plates, by OD600
# Description for Cryptococcus neoformans: Antifungal activity against Cryptococcus neoformans H99 ATCC 208821 (CO-ADD:FG_002); MIC in YNB media using NBS plates, by Resazurin OD(600-570)
SMILES,MIC (Candida albicans) [µM],MIC (Klebsiella pneumoniae) [µM],MIC (Staphylococcus aureus) [µM],MIC (Pseudomonas aeruginosa [1]) [µM],MIC (Pseudomonas aeruginosa [2]) [µM],MIC (Escherichia coli) [µM],MIC (Cryptococcus neoformans) [µM],MIC (Acinetobacter baumannii) [µM],CC50 (HEK293) [µM]
CCc1cc(CCC(=O)Nc2ccccc2O)c(O)nc1C,> 20,> 20,> 20,> 20,> 20,> 20,> 20,> 20,> 20
N[C@H](CCC(=O)N[C@@H](Cc1c[nH]c2ccccc12)C(=O)O)C(=O)O [GOLOTIMOD],> 20,> 20,> 20,> 20,> 20,> 20,> 20,> 20,> 20
Clc1ccc(Cn2c(CN3CCCC3)nc3ccccc32)cc1 [CLEMIZOLE],> 20,> 20,> 20,> 20,> 20,> 20,> 20,> 20,> 20
CO/N=C(\C(=O)N[C@@H]1C(=O)N2C(C(=O)OCOC(=O)C(C)(C)C)=C(/C=C\c3scnc3C)CS[C@H]12)c1csc(N)n1 [CEFDITOREN PIVOXIL],> 20,> 20,> 20,> 20,> 20,> 20,> 20,> 20,> 20
CC(C)Nc1nc2cc(Cl)c(Cl)cc2n1[C@H]1O[C@@H](CO)[C@H](O)[C@@H]1O [MARIBAVIR],> 20,> 20,> 20,> 20,> 20,> 20,> 20,> 20,> 20
CC(C)N(c1cc(-c2ccccc2)sc1C(=O)O)C(=O)[C@H]1CC[C@H](C)CC1,> 20,> 20,> 20,> 20,> 20,> 20,> 20,> 20,> 20
Cc1cc(C)n(O)c(=O)c1 [METIPIROX],> 20,> 20,> 20,> 20,> 20,> 20,20,> 20,> 20
CC[C@@]1(O)C(=O)OCc2c1cc1n(c2=O)Cc2cc3c(CN(C)C)c(O)ccc3nc2-1 [TOPOTECAN HYDROCHLORIDE],> 20,> 20,> 20,> 20,> 20,> 20,> 20,> 20,0.218
CCc1nc2ccc(Cl)cn2c1C(=O)NCc1ccc(N2CCC(c3ccc(OC(F)(F)F)cc3)CC2)cc1 [TELACEBEC],> 20,> 20,> 20,> 20,> 20,> 20,> 20,> 20,> 20
O=C(Nc1[nH]c(=O)ncc1F)c1ccccc1,> 20,> 20,> 20,> 20,> 20,> 20,> 20,> 20,> 20
C[C@@H]1O[C@@H]1P(=O)(O)O,> 20,> 20,> 20,> 20,> 20,> 20,> 20,> 20,> 20
NC(=O)c1cnc2ccc(S(=O)(=O)c3ccccc3)cc2c1Nc1ccc(O)cc1,> 20,> 20,> 20,> 20,> 20,> 20,> 20,> 20,> 20
N#Cc1c(F)c(Cl)c(NCc2ccccc2)c(C#N)c1F,> 20,> 20,5,> 20,> 20,> 20,> 20,> 20,5.16
CCNC(=O)Nc1cn2c(-c3ncc(CC)cn3)cc(-c3cccnc3)cc2n1,> 20,> 20,> 20,> 20,> 20,> 20,> 20,> 20,> 20
COC(=O)Nc1nc2ccccc2[nH]1 [CARBENDAZIM],> 20,> 20,> 20,> 20,> 20,> 20,> 20,> 20,15.5
CC(C)Oc1ccc(-n2cnc3cc(/C=C\c4ccc(C(C)(C)O)cc4)ccc32)cc1 [LHF-535],> 20,> 20,> 20,> 20,> 20,> 20,> 20,> 20,10.6
NC(=O)c1[nH]c2ccc(S(N)(=O)=O)cc2c1-c1ccccc1,> 20,> 20,> 20,> 20,> 20,> 20,> 20,> 20,> 20

# Second part, led by results:
MIC (Candida albicans) [µM],MIC (Klebsiella pneumoniae) [µM],MIC (Staphylococcus aureus) [µM],MIC (Pseudomonas aeruginosa [1]) [µM],MIC (Pseudomonas aeruginosa [2]) [µM],MIC (Escherichia coli) [µM],MIC (Cryptococcus neoformans) [µM],MIC (Acinetobacter baumannii) [µM],SMILES,CC50 (HEK293) [µM]
> 20,> 20,> 20,> 20,> 20,> 20,> 20,> 20,OC1O[C@H](CSc2ccc(F)cc2)[C@@H](O)[C@H]1O (some centres not stated),> 20
> 20,> 20,> 20,> 20,> 20,> 20,> 20,> 20,CC1(C)C[C@H]1C(=O)N/C(=C\CCCCSC[C@@H](N)C(=O)O)C(=O)O,> 20
> 20,> 20,> 20,> 20,> 20,> 20,> 20,> 20,CNC(=O)C1O[C@@H](n2cnc3c(NCc4cccc(I)c4)nc(Cl)nc32)[C@H](O)[C@@H]1O (some centres not stated),18.3
> 20,> 20,> 20,> 20,> 20,> 20,> 20,> 20,O=C(O)COc1cccc2c1CC[C@](O)(COC(=O)N(c1ccccc1)c1ccccc1)C2,> 20
≤ 0.156,> 20,> 20,> 20,> 20,> 20,0.625,> 20,O[C@@](Cn1cnnn1)(c1ccc(F)cc1F)C(F)(F)c1ccc(-c2ccc(OCC(F)(F)F)cc2)cn1 [OTESECONAZOLE],> 20
> 20,> 20,> 20,> 20,> 20,> 20,> 20,> 20,Cc1cc(NS(=O)(=O)c2ccc(-c3ccc(F)cc3F)cc2)no1,> 20
> 20,> 20,> 20,> 20,> 20,> 20,> 20,> 20,COc1ccc2sc3c(c2c1)NC(C)CNC3=O (configuration not stated),8.52
> 20,> 20,> 20,> 20,> 20,> 20,> 20,> 20,Cc1ccn2c(C(=O)NCc3ccccc3)c(C)nc2c1,> 20
> 20,> 20,> 20,> 20,> 20,> 20,> 20,> 20,O=C(NCc1ccc(F)cc1)c1c(O)c2ncccc2[nH]c1=O,> 20
> 20,> 20,> 20,> 20,> 20,> 20,> 20,> 20,O=S(=O)(Nc1ccc(-n2cccc2)cc1)c1ccc(Cl)c(Cl)c1,> 20
> 20,> 20,> 20,> 20,> 20,> 20,> 20,> 20,Nc1nc(NC2Cc3ccc(F)cc3C2)nc(N2CCCCC2)n1 (configuration not stated),> 20
